Experimental data from PubChem BioAssay (NCI).
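Following 48 hours of exposure in 96-well plates, responses at five concentrations were used to interpolate endpoints linearly. TGI marks complete inhibition of growth.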

Assays:
Test in all cases: NCI-60 cell line screen, 48 h
SR leukemia = test system: SR leukemia
SNB-19 CNS = test system: SNB-19 CNS
A498 renal = test system: A498 renal
HCT-15 colon = test system: HCT-15 colon
OVCAR-5 ovarian = test system: OVCAR-5 ovarian
NCI-H23 lung = test system: NCI-H23 lung
SNB-75 CNS = test system: SNB-75 CNS
NCI-H226 lung = test system: NCI-H226 lung
SF-539 CNS = test system: SF-539 CNS
NCI/ADR-RES ovarian = test system: NCI/ADR-RES ovarian

SMILES	TGI (SR leukemia)	TGI (SNB-19 CNS)	TGI (A498 renal)	TGI (HCT-15 colon)	TGI (OVCAR-5 ovarian)	TGI (NCI-H23 lung)	TGI (SNB-75 CNS)	TGI (NCI-H226 lung)	TGI (SF-539 CNS)	TGI (NCI/ADR-RES ovarian)
C[N+](CCCl)(CCCl)Cc1cccc2cccc([N+](=O)[O-])c12	> 100 µM	> 100 µM	> 100 µM	> 100 µM	> 100 µM	> 100 µM	> 100 µM	> 100 µM	> 100 µM	> 100 µM
CC(C)C(=O)[C@@]1(C)SC[C@H]2CCN=C21	> 100 µM	> 100 µM	> 100 µM	> 100 µM	> 100 µM	> 100 µM		> 100 µM	> 100 µM	> 100 µM
COC(=O)C1=C(C)NC2=C(C(=O)c3ccccc32)C1c1cn(-c2ccccc2)nc1-c1ccccc1 (configuration not stated)	> 21.6 µM	> 100 µM	> 100 µM	> 100 µM	> 100 µM	> 100 µM	> 100 µM	> 100 µM	> 100 µM	> 100 µM
COc1ccc(N2C(=O)C(=O)N(c3ccccc3[N+](=O)[O-])C2=S)cc1	> 100 µM	> 100 µM	77.5 µM	40.5 µM	63.4 µM	53.5 µM	> 100 µM	> 100 µM	88.3 µM	64.2 µM
O=C1NC(=O)C(c2c[nH]c3ccccc23)=C1c1cnc[nH]1	> 100 µM	> 100 µM	> 100 µM	> 100 µM	> 100 µM		> 100 µM	9.4 µM	> 100 µM	> 100 µM
NS(=O)(=O)c1ccc(N=Nc2nc3[nH]c(=O)[nH]c(=O)c3[nH]2)cc1	> 100 µM	> 100 µM	> 100 µM	> 100 µM	> 100 µM	> 100 µM	> 100 µM	> 100 µM	> 100 µM	> 100 µM
COc1cc(C2SCC(=O)N2c2ccccn2)cc(OC)c1OC (configuration not stated)	> 100 µM	> 100 µM	> 100 µM	> 100 µM	> 100 µM	> 100 µM		> 100 µM	> 100 µM	> 100 µM
COC(=O)c1cc2c3c(ccc2[nH]1)N(C(=O)c1cc2cc(OC)c(OC)c(OC)c2[nH]1)CC3CCl (configuration not stated)	> 100 µM	> 100 µM	> 100 µM	> 100 µM	> 100 µM	> 100 µM	> 100 µM	> 75 µM	> 79.2 µM	> 91.8 µM
CCCCN(CCCC)CC(O)c1cc(-c2ccc(C(F)(F)F)cc2)nc(-c2ccc(C(F)(F)F)cc2)c1 (configuration not stated)	> 100 µM	> 100 µM	> 100 µM	> 100 µM	> 100 µM	> 100 µM	> 100 µM		> 100 µM	> 100 µM
CCCCC1=NNC(=O)C1	> 100 µM		> 100 µM	> 100 µM	> 100 µM	> 100 µM	> 100 µM	> 100 µM	> 100 µM	> 100 µM
CC(C)(Cl)C(Br)CCC(C)(Cl)C(Br)CBr (configuration not stated)	22.2 µM	> 100 µM	49.6 µM	61.9 µM	48.7 µM	55.6 µM	93.9 µM	60.6 µM	49.7 µM	68 µM
Nc1ccc(-c2nc3cc(F)ccc3s2)cc1Cl	9.4 µM	> 100 µM	> 39.3 µM	> 100 µM	28.8 µM		51.8 µM	5.04 µM	45.1 µM	> 100 µM
CC(=O)Nc1ccc(N2C(=O)/C(=C\c3cccc(Oc4ccccc4)c3)S(=O)(=O)C2c2ccccc2)cc1 (configuration not stated)	> 100 µM	> 100 µM	> 100 µM	> 100 µM	> 100 µM	> 100 µM	> 100 µM	> 100 µM	62.5 µM	> 100 µM
CC(=O)N(C)c1ccc(Nc2cc(C)[nH]c3ccc4ncnc4c23)cc1	23 µM	42.4 µM	25.2 µM	93.3 µM	29.4 µM	28 µM	30 µM	19.5 µM	18.6 µM	453 µM
Oc1cn(-c2ccc(Cl)cc2)nc1-c1nnc(-c2ccccc2)o1	20.8 µM	> 68.5 µM	56.3 µM	27.2 µM	39.3 µM	1.01 µM	> 100 µM	30.7 µM	27 µM	7 µM
CN(Cc1cnc2nc(N)nc(N)c2n1)c1ccc(C(=O)NC(CCC(=O)NCCC(P(=O)(O)O)P(=O)(O)O)C(=O)O)cc1 (configuration not stated)	> 100 µM	> 100 µM	> 100 µM	> 100 µM	> 100 µM	> 100 µM	> 100 µM	> 100 µM	> 100 µM	> 100 µM

SMILES	TGI (SR leukemia)	TGI (SNB-19 CNS)	TGI (A498 renal)	TGI (HCT-15 colon)	TGI (OVCAR-5 ovarian)	TGI (NCI-H23 lung)	TGI (SNB-75 CNS)	TGI (NCI-H226 lung)	TGI (SF-539 CNS)	TGI (NCI/ADR-RES ovarian)
Cc1cc(C)n2nc3nc(N)c(C#N)c(-c4ccccc4)c3c2n1	> 100 µM	> 100 µM	> 100 µM	> 100 µM	> 100 µM	> 100 µM		> 100 µM	> 100 µM	> 100 µM
CC(C)(C)OC(=O)N1CCc2[nH][nH]c(=O)c2C1	> 100 µM	> 100 µM	> 100 µM	> 100 µM		> 100 µM		> 100 µM	> 100 µM	> 100 µM
CCCCc1c(N(C)C)c(OC(C)=O)c(-c2cn(C)c3ccccc23)oc1=O	> 100 µM	90.3 µM	81.4 µM	53.7 µM	> 100 µM	56.7 µM	86 µM	36.8 µM	47.5 µM	56.3 µM
OCCCCCCCCCCCOc1ccc(C2OCC3(CO2)COC(c2ccc(OCCCCCCCCCCCO)cc2)OC3)cc1 (configuration not stated)	> 50 µM	> 50 µM	> 50 µM	> 50 µM	> 50 µM	> 50 µM	> 50 µM	> 50 µM	> 50 µM	> 50 µM
CN(CC(=O)O)c1ncc2c(n1)-c1ccccc1SC2	> 100 µM	> 100 µM	> 100 µM	> 100 µM	> 100 µM	> 100 µM	> 100 µM		> 100 µM	> 100 µM
CCCCCCCCCC1(N=[N+]=[N-])C(=O)c2ccccc2N(C)C1=O (configuration not stated)	> 100 µM	> 100 µM	76.8 µM	> 100 µM	82.9 µM	97.4 µM	> 100 µM		> 100 µM	> 100 µM
CS(=O)(=O)O[C@H]1CN2C[C@@H](O)[C@@H](O)[C@H]2[C@H]1CO	> 100 µM	> 100 µM	> 100 µM	> 100 µM	> 100 µM	> 100 µM		> 100 µM	> 100 µM	> 100 µM
O=C1C2CC=CCC2C(=O)N1n1c(Cc2ccc(Cl)cc2)n[nH]c1=O (configuration not stated)	> 100 µM		> 100 µM	> 100 µM	> 100 µM	> 100 µM	> 100 µM	> 100 µM		> 100 µM
CN(C(=O)C1=CCC2(CC1)OCCO2)c1ccccc1OS(=O)(=O)C(F)(F)F	> 100 µM	> 100 µM	> 100 µM	> 100 µM	> 100 µM	> 100 µM	79.5 µM	85.4 µM		> 100 µM
O=C(C=P(c1ccccc1)(c1ccccc1)c1ccccc1)c1ccc(-c2cccc([N+](=O)[O-])c2)s1	> 100 µM	> 100 µM	81.9 µM	> 100 µM	> 100 µM	> 100 µM	76.3 µM		> 100 µM	> 100 µM
CCOC(=O)C1=C(C)N(Cc2ccc(Cl)cc2Cl)C2(O)C=CC(=O)C3C(=O)N(c4ccccc4)C(=O)C132 (configuration not stated)	2.23 µM	3.73 µM	16.9 µM	3.88 µM	22.3 µM	3.53 µM		3.09 µM	5.38 µM	11.1 µM
COC(=O)CC(C#N)(OP1(=O)OC(c2ccccc2)C(C)N1C)c1ccccc1 (configuration not stated)	74.8 µM	> 100 µM	> 100 µM	> 100 µM	69.6 µM	97.9 µM	> 100 µM		> 100 µM	> 100 µM
Oc1c(C2=NNC(c3ccc(Cl)cc3Cl)C2)ccc2ccccc12 (configuration not stated)	35 µM		> 100 µM	> 100 µM	> 100 µM	> 100 µM	> 100 µM	> 100 µM	> 100 µM	83.3 µM
O=c1cnn(C/C=C/CBr)c(=O)[nH]1	42.8 µM	79.7 µM	31.7 µM	39.2 µM	31.2 µM		33.4 µM	34.8 µM	31.6 µM	58.1 µM
Nc1ccc(Oc2ccc(C34CC5CC6C3CC3CC4C(C5)C6(c4ccc(Oc5ccc(N)cc5)cc4)C3)cc2)cc1	40.1 µM	> 61.4 µM	55.7 µM	> 100 µM	> 100 µM	> 82.9 µM		71.4 µM		> 100 µM
FC(F)(F)c1ccc(N=C/C=C(/Nc2ccc(C(F)(F)F)cc2)c2ccc(Cl)cc2)cc1	> 100 µM	25 µM		25 µM	38.3 µM	31.3 µM	36.8 µM	32.3 µM	31.3 µM	32.3 µM
